This is an account of results in article PMC8997399, “High-Throughput Screening to Identify Inhibitors of Plasmodium falciparum Importin α” (Cells, 2022).

One data set deals with HFF cells. As to the kind of experiment: MTT assay for host cell cytotoxicity. Format: cell-based, human. As for the experimental part:
The MTT assay was used to measure the cytotoxicity of the small molecules against the HFF cells as described. Briefly, freshly confluent HFF cells in a 96-well culture plate were treated with increasing concentrations of compounds for 48 h, prior to the MTT assay.
In general terms: Tetrazolium assays rely on reduction of a dye to a coloured formazan, in cell work by metabolically active cells.

Another data set deals with P. falciparum. The following applies: cited from earlier work.
For another data set, the system named is P. falciparum 3D7 strain. As to the kind of experiment: P. falciparum growth inhibition assay (HRP2 sandwich ELISA). Format: cell-based, Plasmodium falciparum. The protocol: Red blood cells (RBCs) were derived from blood from volunteers (approval from the Institute Ethics Committee, IIT Bombay, Mumbai, India) by density gradient centrifugation. Aliquots of cryopreserved P. falciparum 3D7 strain in human red blood cells (RBCs—3% hematocrit, <5% parasitemia) were thawed and cultured using RPMI (Roswell Park Memorial Institute) 1640 medium supplemented with 0.5% Albumax (Gibco^TM, Waltham, MA, USA), 50 mg/L hypoxanthine (Sigma-Aldrich, St Louis, MO, USA), 2 g/L D-glucose (Sigma-Aldrich, St Louis, MO, USA), 2 g/L sodium bicarbonate (Sigma-Aldrich, St Louis, MO, USA), and 56 mg/L of gentamicin (Abbott, Chicago, IL, USA) at 37 °C in 5% CO2 in a humidified incubator according to the standard procedures; suspension cultures were maintained at 3% hematocrit and <5% parasitemia, by adding a fresh medium daily and a regular addition of fresh human RBCs.
Before growth inhibition assays, cultures were synchronized using 5% D-sorbitol (Sigma-Aldrich, St Louis, MO, USA) predominantly to obtain the ring stage of the P. falciparum life cycle.
Growth assays in the absence and presence of inhibitors were performed using the Histidine–Rich Protein 2 (HRP2) sandwich horseradish peroxidase-linked immunosorbent assay to measure HRP2 protein levels as an indicator of growth. Briefly, 25 µL of compound was added to 96-well microculture plates (Eppendorf, Hamburg, Germany) of 0.25% (with fresh RBCs), and added at a hematocrit of 3%. The plates were then incubated for 72 h at 37 °C in a humidified incubator, sparged with 5% CO2. 72 h later, the plates were subjected to freeze–thaw to achieve hemolysis, and samples diluted 200-fold in H2O in transferring to another plate. A day prior to analysis, 96-well ELISA plates (Sigma-Aldrich, St Louis, MO, USA) were coated overnight at 4 °C with 100 µL of 1 μg/mL IgM capture antibody MPFM-55A (Immunology Consultants Laboratory, Portland, OR, USA) specific for P. falciparum HRP2. After blocking for 2 h at room temperature with 2% BSA in PBS, diluted samples were added to the wells, followed by incubation for 2 h, then the plates were washed three times with 0.05% Tween 20 in PBS. Next, 100 µL of the secondary antibody MPFG-55P (Immunology Consultants Laboratory, Portland, OR, USA) conjugated with horseradish peroxidase (0.25 μg/mL in PBS with 2% BSA) was then added to each well, and the plates incubated for 1 h at room temperature, prior to being washed three times, and 100 µL 3,3′, 5,5′ tetramethylbenzidine substrate (BD Biosciences, San Jose, CA, USA) being added. After 10 min incubation in the dark, 50 µL of 1 M H2SO4 was added and the absorbance was read at 450 nm on a Multiscan™ FC Microplate Spectrophotometer (Thermo Fisher Scientific, Waltham, MA, USA).

For data set [1], the target named is T1, PfIMPα (Plasmodium falciparum, UniProt Q8IAW0). As to the kind of experiment: biochemical. Format: binding. The following applies: for % Inhibition of IMPα-NLS Interaction PfIMPα: compounds at 10 μM, PfIMPα (10 nM):TGS1-NLS-GFP (60 nM), relative to 1% DMSO control, quadruplicate. As for the experimental part:
(§1) PfIMPα, TgIMPα, Mus musculus IMPα (MmIMPα), ΔIBBMmIMPα, and β1 (MmIMPβ) GST fusion proteins were expressed and purified essentially as previously. His-tagged TGS1-NLS-GFP, PfIMPα and TgIMPα proteins were purified using Ni^2+-affinity chromatography as described. His-tagged SV40 T-ag-NLS-GFP was purified as previously. Biotinylation of GST-tagged proteins was carried out using the Sulfo-NHS-Biotin reagent (Pierce, Rockford, IL, USA) as described previously. AlphaScreen binding assay was performed as described previously.
Then, 10 nM biotinylated PfIMPα and 60 nM TGS1-NLS-GFP were used with library compounds, screened at 10 µM final concentration.
Briefly, 5 μL of each compound in DMSO was added to quadruplicate wells of a 384-well plate along with appropriate controls including DMSO alone and ivermectin, as previously, using a JANUS Modular Dispense Technology (MDT) robotic system (PerkinElmer, Waltham, MA, USA). This was followed by successive 7 and 5 μL additions, respectively, of PfIMPα (10 nM) and TGS1-NLS-GFP (60 nM) or PBS (“no bait” control), respectively, and 30 min incubation at room temperature. […] Then, 4 µL of the AlphaScreen donor beads (1/40 dilution of GSH. acceptor beads in PBS) was finally added to each well using a Multidrop, followed by a further incubation of 2 h at room temperature in the dark.
(§2) Plates were read for an Alphascreen signal on an Envision plate reader (PerkinElmer, Waltham, MA, USA), with signals from the negative control wells (no bait control) on each plate subtracted.

A further data set addresses T2, MmIMPα/β heterodimer (Mus musculus, UniProt P52293).
T2 construct: GST; made in house
As to the kind of experiment: AlphaScreen binding assay, MmIMPα/β:T-ag-NLS-GFP interaction. As to conditions: compounds at 10 μM, MmIMPα/β (5 nM):T-ag-NLS-GFP (30 nM), relative to 1% DMSO control. As for the experimental part:
as §1, §2
On the technique in general: Bead proximity is the source of the signal in Alpha formats.

The test system of another data set is T. gondii tachyzoites. The following applies: cited from earlier work.
For data set [2], the target named is T1, PfIMPα. Format: binding.
Setting [3] is: 10 µM, 72 h, 0.25% parasitemia (Figure 5A).
The mark [4] stands for this setting: pooled, mean ± SEM (n = 3), read-out: IC50 PfIMPα:TGS1-NLS-GFP.

SMILES strings stand for the structures. Values joined by “and” are separate entries in the source; they are usually repeats but may differ in a detail not shown here. Equal entries are not always repeated. Where two headings read alike, the source gives them in different places. A value given as a limit tells only on which side of the number the result lay.

T1 sequence (Q8IAW0 entry or part of it): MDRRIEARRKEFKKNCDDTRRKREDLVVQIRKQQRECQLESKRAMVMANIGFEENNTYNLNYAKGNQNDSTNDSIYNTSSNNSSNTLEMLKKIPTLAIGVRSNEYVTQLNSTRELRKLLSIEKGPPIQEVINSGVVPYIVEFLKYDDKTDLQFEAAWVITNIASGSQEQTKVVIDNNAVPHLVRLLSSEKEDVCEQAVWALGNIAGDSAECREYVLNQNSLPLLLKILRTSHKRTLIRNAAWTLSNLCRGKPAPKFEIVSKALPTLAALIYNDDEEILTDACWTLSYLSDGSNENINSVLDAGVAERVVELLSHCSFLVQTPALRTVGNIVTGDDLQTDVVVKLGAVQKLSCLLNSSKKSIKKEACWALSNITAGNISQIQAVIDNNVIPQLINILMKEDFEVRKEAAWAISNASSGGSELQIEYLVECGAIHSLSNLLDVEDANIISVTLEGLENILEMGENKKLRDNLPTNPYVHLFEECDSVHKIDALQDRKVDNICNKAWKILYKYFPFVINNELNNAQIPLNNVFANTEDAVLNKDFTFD

For the compound `CC(=O)OC[C@H]1O[C@@H]([S-])[C@H](OC(C)=O)[C@@H](OC(C)=O)[C@@H]1OC(C)=O.CCP(CC)CC.[Au+]` [auranofin], in the data set with HFF cells (MTT assay, 48 h, mean ± SD (n = 2), read-out: CC50 HFF cells), the CC50 came out at 5100 nM. Further, the “cytotoxicity to HFF cells” value in the data set on HFF cells (at concentrations < c. 5 µM) was “essentially absent”. In addition, the “activity against P. falciparum” value with P. falciparum is “possess activity”. Also, the “inhibition of P. falciparum growth (HRP2 levels)” value in the data set with P. falciparum 3D7 strain (setting [3]) is given as over 50%. Also, the “% Inhibition of IMPα-NLS Interaction PfIMPα” value on PfIMPα [1] was 94%. Further, the “% Inhibition of IMPα-NLS Interaction MmIMPα/β” value on MmIMPα/β heterodimer is recorded as 100%. Further, the “activity against cultured T. gondii” value in the data set on T. gondii tachyzoites is recorded as “possess activity”. Further, the IC50 on PfIMPα [2] (setting [4]) is 70 ± 10 nM; at PfIMPα [2] (range over PfIMPα, TgIMPα and MmΔIBBIMPα interactions, read-out: IC50 values of all three IMPα:NLS interactions), 60 to 80 nM; on PfIMPα [2] (single experiment (Figure 3), IMPα 5 nM, NLS 30 nM, read-out: IC50 PfIMPα:TGS1-NLS-GFP), 80 nM.
Take `CC(C)(C)c1ccc(S(=O)(=O)/C=C/C#N)cc1` [Bay 11-7085]: the 50% cytotoxic concentration (CC50) in the data set with HFF cells turned out to be 8200 ± 700 nM. For the same compound, in the data set with P. falciparum 3D7 strain (setting [3]), the “inhibition of P. falciparum growth (HRP2 levels)” value was about 20%. Moreover, the 50% inhibitory concentration (IC50) with P. falciparum 3D7 strain (parasites in culture, 72 h, pooled, mean ± SD (n = 3)) is over 10000 nM; on PfIMPα [2] (setting [4]), 2000 nM and 1900 nM. Also, on PfIMPα [1], the “% Inhibition of IMPα-NLS Interaction PfIMPα” value turned out to be 75%. The “fold lower IC50 for PfIMPα compared to both TgIMPα and MmIMPα” value at PfIMPα [2] (range over both comparisons) was 12-16 fold.
Turning to `O=C(/C=C/c1ccc(O)c(O)c1)OCCc1ccccc1` [CAPE, Caffeic acid phenethyl ester], the concentration for half-maximal inhibition (IC50) in the data set with P. falciparum 3D7 strain (Plasmodium falciparum, 3D7, 72 h, parasites in culture, pooled, mean ± SD (n = 3)) was determined as 7500 ± 1100 nM; in the data set on P. falciparum 3D7 strain (Plasmodium falciparum, 3D7, 72 h, single typical experiment (Figure 6)), 6500 nM; against PfIMPα [1], 1800 ± 300 nM. In addition, the inhibition at 10 µM was over 50% with P. falciparum 3D7 strain (Plasmodium falciparum, 3D7, 10 µM, 72 h, 0.25% parasitemia (Figure 5A), read-out: inhibition of P. falciparum growth (HRP2 levels)); 84% at PfIMPα [1] (read-out: % Inhibition of IMPα-NLS Interaction PfIMPα); 14% at MmIMPα/β heterodimer (read-out: % Inhibition of IMPα-NLS Interaction MmIMPα/β).

Usually CC50 stands for the concentration giving 50% cytotoxicity. By IC50 is commonly meant the point on the concentration scale where inhibition reaches its midpoint.
